Test results reported in patent US6998237B1, “GD3 peptide mimics” (Health Research, Inc., priority 2002, dated 2006).
Bridge positions count the residues as written; N and C are the ends. Ends that are not written are not given here.

How the values were obtained:
[1] = Induction of anti-peptide and anti-carrier antibodies in immunized mice; format: in vivo
Source text: FIGS. 4a, 4b, 4c are representations of induction of the anti-peptide and anti-carrier reponses. Mice were immunized on day 0, 14, 28 and 42. Sera was collected on day 10, 24 and 38. Results are shown for mice immunized with p763.74 (FIG. 4a), pMG22-8-1 (FIG. 4b) and KLH (FIG. 4c). Preimmune sera is indicated as -∘-; reaction against the immunized peptide is indicated as -●-; and reaction against peptide not used for immunization is indicated as -Δ-.
Mice were immunized with pMG22-8-1, p763.74 peptides or KLH. Sera was tested on day 10, 24 and 38. […] In the group immunized with pMG22-8-1, the titer of antibodies reacting against the GD3 peptide mimic is observed.

[2] = system: GD3 positive (Melur) cells; assay: Reactivity of sera from immunized mice to GD3 positive (Melur) versus GD3 negative (LG2) cells by ELISA; format: in vivo; settings: following two immunizations, Melur vs LG2 cells, sera day 24 and 38
Method: FIGS. 5a and 5b are representations of the selective reactivity of sera from mice immunized with GD3 peptide mimic pMG22-8-1. Immunizations were carried out on […], day 14, day 28 and day 42. Serum samples were collected on day 24 and day 38 and tested for binding to GD3 positive or negative cells. Results are shown for a peptide mimic according to the present invention (pMG22-8-1; FIG. 5b) and control peptide (p763.74; FIG. 5a).
Mice were immunized with peptide pMG22-8-1 (SEQ ID NO:6) on days 0, 14, 28 and 42. Sera was collected on days 24 and 38. The sera was tested for reactivity to GD3 positive (Melur) cells compared with GD3 negative cells (LG2) by ELISA.

mAb MG22 = assay: Inhibition of binding of anti-GD3 mAb MG22 to GD3+ Melur melanoma cells by peptide mimic
Source text: (§1) FIGS. 2a, 2b and 2c are representations of inhibition of binding of anti-GD3 monoclonal antibody to GD3+ cells by peptide mimics of the present invention. Data is shown for pMG21-15-1 (FIG. 2a), pMG21-8-4 (FIG. 2b) and pMG22-8-1 (FIG. 2c) for inhibition of binding of mAb MG22 (-∘-); mAb MG21 (-●-) and mAb 763.74 (-Δ-).
FIG. 3 is a representation of the effect of dithiothrietol (DTT) on inhibition of MG22 binding to GD2/3+Melur cells by […]. […] This inhibitory effect was abolished by the pre-incubation of pMG22-8-1 with 10 mM DTT (—SH), confirming that the inhibitory peptide was in its cyclized form (-S-S-). 763.74, a monoclonal antibody that recognizes another melanoma-associated antigen—the High Molecular Weight-Melanoma Associated Antigen (HMW-MAA), is used here as an irrelevant antibody to show the binding specificity of GD2/3 peptide mimic pMG22-8-1 for mAb MG22; and p763.74 is a HMW-MAA peptide mimic isolated using the mAb 763.74. It is used here as an irrelevant peptide mimic to show the binding specificity of the GD3-specific mAb MG22 for pMG22-8-1.
(§2) For further characterization, the pVIII gene inserts of positive phage clones identified by reverse ELISA were sequenced. Peptides encoded by these sequences were synthesized and then tested for GD3 specificity. This was done by assessing the peptides' ability to compete with MG21 or MG22 for binding to GD3-bearing melanoma cell line in vitro.
(§3) Cyclized pMG21-15-1, pMG21-8-4 and pMG22-8-1 were tested for inhibiting the binding of the anti-GD2 mAb to Melur melanoma cells.
The effect of 10 mM DTT on the inhibition of binding of anti-GD3 mAb to GD3+ cells was investigated.

mAb MG21 = assay: Inhibition of binding of anti-GD3 mAb MG21 to GD3+ Melur melanoma cells by peptide mimic; settings: cyclized peptide; FIG. 2a, 2b
Source text: as §1, §2, §3

[3] = molecular target: anti-GD3 monoclonal antibody MG22; assay: inhibition of mAb MG22 binding to GD2/3+ Melur melanoma cells by cyclized peptide, at 500 µM peptide

## MCPTDMPASLCM (disulfide 2-11 (inferred)) [pMG22-8-1, GD3 peptide mimic isolated using MG22 from LX-8 phage library]
[1]; group immunized with pMG22-8-1, FIG. 4b
  titer of non-specific antibodies reacting to p763.74 (peptide not used for immunization): increase
[1]; mice immunized day 0, 14, 28, 42, sera day 10, 24, 38
  titer of serum antibodies reacting to the immunogen: high titer
[2]
  mice whose serum reacted selectively to GD3 positive cell line: one out of eight mice
mAb MG22; 10 mM DTT (reduced, non-cyclized peptide)
  inhibition of mAb MG22 binding to GD3+ cells after pre-incubation of the peptide with DTT: abolished
mAb MG22; at 500 μM peptide, GD2/3+ Melur cells, dose-dependent
  inhibition of binding of MG22 to Melur cells: up to 72%
mAb MG22; cyclized peptide, FIG. 2c
  inhibition of binding of panning mAb MG22 to Melur melanoma cells: inhibited in a specific and dose-dependent manner

## QPFPCYSNAPCQSPS (not fully specified (bridges); cysteine pairing not given here) [pMG21-15-1, GD3 peptide mimic isolated using MG21 from X15 phage library]
mAb MG21
  inhibition of binding of panning mAb MG21 to Melur melanoma cells: inhibited in a specific and dose-dependent manner

## RCPPEYVAADCD (disulfide 2-11 (inferred)) [pMG21-8-4, GD3 peptide mimic isolated using MG21 from LX-8 phage library]
mAb MG21
  inhibition of binding of panning mAb MG21 to Melur melanoma cells: inhibited in a specific and dose-dependent manner

## MCPTDMPASLCM (disulfide 2-11 (inferred)) [pMG22-8-1]
[3]
  % inhibition of MG22 binding to Melur cells: 72%
